Measured values as given in US6028222A (priority 1996, dated 2000).
Several values for one entry are separate records, joined by “and”; a condition that tells them apart may be missing. Identical values can stand only once. Like-named read-outs stand apart in the source and are kept apart here.

What was measured:
[1] = Stabilization of concentrated paracetamol solution by free radical scavengers; format: physicochemical; conditions: for Appearance upon exposure to light, color intensity: 48 hours actinic light; for Appearance at 70° C., color intensity: 48 hours, dark
Procedure: The solutions thus prepared are divided in 10 ml capacity vials, stoppered with a Bromobutyl stopper and capped with an aluminium cap. After autoclaving at 121° C. for 20 minutes, the vials were stored for 48 hours, either in the presence of actinic light at 5500° K. at room temperature or at 70° C. in the dark. The preparation was examined for any change in color.

[2] = Stabilization of dilute paracetamol solution by free radical scavengers (formulation B and C); format: physicochemical
Procedure: (§1) The solutions thus prepared were divided in 10 ml, 100 ml or 80 ml capacity vials, stoppered with a Bromobutyl stopper and capped with an aluminium cap. The preparation was examined for any pink color development.

[3] = Stabilization of dilute paracetamol solution by free radical scavengers (formula A); format: physicochemical; conditions: 48 hours
Procedure: as §1
After autoclaving at 121° C. for 20 minutes, the vials were stored for 48 hours, either in the presence of actinic light at 5500° K. at room temperature or at 70° C. in the dark (formula A).

[4] = Stabilization of dilute paracetamol + codein phosphate solution by free radical scavengers; format: physicochemical; conditions: 48 hours
Procedure: The solutions thus prepared were divided in 10 ml capacity vials, stoppered with a Bromobutyl stopper and capped with an aluminium cap. […] The preparation was examined for any change in color.

[5] = format: physicochemical; conditions: 48 hours
[6] = tested on: extensor digitorum longus muscle; experiment: Muscular tolerance (creatine kinase release from isolated muscle); parameters: species or system Sprague-Dawley rats; conditions: for creatine kinase activity: 15 μl injected
Procedure: The pH of this solution was not adjusted. Apparent pH is equal to 7,6.
Sprague-Dawley rats, weighing between 260 g and 450 g were anesthesized with an i.p. injection of ethyl carbamate (2 ml/kg of a 50% aqueous solution). The extensor digitorum longus muscle was dissected from the right or left hind leg, and placed in buffer medium having the following composition:
The muscle is transiently fixed to a board and maintained in position by tendons. The test product was injected in an amount of 15 μl by means of a 25 μl-capacity Hamilton seringe no 702. The muscle is then placed over a grit and immersed in the buffer solution kept at 37° C. with carbogen bubbling throughout the incubation period. At 30 minutes intervals, the muscles were introduced in a tube containing fresh buffer at 37° C. The procedure was repeated 4 times.
Creatine kinase was measured using a Hitachi 704 model analyzer in conjunction with a reagent kit sold under tradename high performance Enzyline CK NAC 10 (Biomerieux).

[7] = Paracetamol instability in solution and breakdown products; format: physicochemical; conditions: aqueous or partially aqueous solutions
[8] = HPLC assay of paracetamol and codein before and after autoclaving; conditions: for assay, after sterilization: 121° C. 20 minutes
[9] = 50 mg/ml, 124° C. 7 minutes, 48 hours room temperature dark
[10] = 0.2 mg/ml, 124° C. 7 minutes, 48 hours room temperature dark
[11] = C.R.L. 0.2 mg/ml, 124° C. 7 minutes, 48 hours room temperature dark
[12] = containing 0.5 mg/ml of cystein hydrochloride
[13] = no free radical scavenger added

For `OC[C@@H](O)[C@@H](O)[C@H](O)[C@H](O)CO` [Mannitol], the “Appearance upon exposure to light, color intensity” value (“Appearance upon exposure to light” below) ([1]; 50 mg/ml) was “colorless”, the “Appearance at 70° C., color intensity” value ([1]; 50 mg/ml) was “colorless” and the “Solution appearance, color” value ([2]; 20 mg/ml, 124° C. 7 minutes, 48 hours room temperature dark) was “colorless”. The “Solution appearance, color” value ([2]; 40 mg/ml, 124° C. 7 minutes, 48 hours room temperature dark) was “colorless” and the “Solution appearance, color” value [2, 9] was “colorless”.
In the case of `NC(N)=S` [Thiourea], the “color at 70° C.” value ([3]; 0.5 mg/ml) is reported as “colorless” and the “color upon exposure to light” value ([3]; 0.5 mg/ml) is reported as “colorless”.
In the case of `Cl.N[C@@H](CS)C(=O)O` [Cystein hydrochloride], the “Appearance upon exposure to light” value ([1]; 1 mg/ml) is reported as “cloudy”, the “Appearance at 70° C., color intensity” value ([1]; 1 mg/ml) is reported as “cloudy” and the “color at 70° C.” value ([3]; 0.05 mg/ml) is reported as “colorless”. The “color upon exposure to light” value ([3]; 0.05 mg/ml) was “colorless”, the “color at 70° C.” value ([3]; 0.1 mg/ml) was “colorless” and the “color upon exposure to light” value ([3]; 0.1 mg/ml) was “colorless”. For the same compound, the “color at 70° C.” value ([3]; 0.25 mg/ml) was “colorless”, the “color upon exposure to light” value ([3]; 0.25 mg/ml) was “colorless” and the “color at 70° C.” value ([3]; 0.5 mg/ml) was “colorless”. The “color upon exposure to light” value ([3]; 0.5 mg/ml) was “colorless”, the “color at 70° C.” value ([3]; 0.75 mg/ml) was “colorless” and the “color upon exposure to light” value ([3]; 0.75 mg/ml) was “colorless”. For the same compound, the “color at 70° C.” value ([3]; 1 mg/ml) was “colorless”, the “color upon exposure to light” value ([3]; 1 mg/ml) was “colorless” and the “color at 70° C.” value ([3]; 2 mg/ml) was “colorless”. The “color upon exposure to light” value ([3]; 2 mg/ml) was “colorless”, the “color at 70° C.” value ([3]; 5 mg/ml) was “colorless” and the “color upon exposure to light” value ([3]; 5 mg/ml) was “colorless”. The “color at 70° C.” value ([4]; 0.05 mg/ml) was “pink”, the “color at 70° C.” value ([4]; 1.0 mg/ml) was “colorless” and the “color upon exposure to light” value ([4]; 1.0 mg/ml) was “colorless”. The “color at 70° C.” value ([4]; 2.0 mg/ml) was “colorless”, the “color upon exposure to light” value ([4]; 2.0 mg/ml) was “colorless” and the “color at 70° C.” value ([4]; 5.0 mg/ml) was “colorless”. The “color upon exposure to light” value ([4]; 5.0 mg/ml) was “colorless”.
In the case of `O[C@H](CS)[C@H](O)CS` (racemic) [Dithiothreitol], the “Appearance upon exposure to light” value ([1]; 1 mg/ml) is reported as “colorless”, the “Appearance at 70° C., color intensity” value ([1]; 1 mg/ml) is reported as “colorless” and the “color at 70° C.” value ([3]; 1 mg/ml) is reported as “colorless”. The “color upon exposure to light” value ([3]; 1 mg/ml) was “colorless”, the “color at 70° C.” value ([5]; 1 mg/ml) was “violet pink” and the “color upon exposure to light” value ([5]; 1 mg/ml) was “violet pink”. For the same compound, the “color at 70° C.” value ([4]; 0.5 mg/ml) was “colorless” and the “color upon exposure to light” value ([4]; 0.5 mg/ml) was “colorless”.
Compound Triton-X has a creatine kinase activity ([6]; 30 min) of 1802 ± 2114 IU/l, a creatine kinase activity ([6]; 60 min) of 1716 ± 978 IU/l and a creatine kinase activity ([6]; 90 min) of 155 ± 89 IU/l. The creatine kinase activity ([6]; 120 min) was 289 ± 251 IU/l and the “creatine kinase activity, Total” value ([6]; Total of 30-120 min) was 14962 IU/l.
With `CC(=O)N[C@@H](CS)C(=O)O` [N-acetylcystein] the “Dosage of C.R.L. (in % of theoretical volume)” value [2, 10] was 88%, the “Solution appearance, color” value [2, 10] was “colorless” and the “Dosage of paracetamol (in % of theoretical volume)” value [2, 11] was 99.2%. For the same compound, the “color at 70° C.” value ([4]; 2.0 mg/ml) was “grey” and the “color upon exposure to light” value ([4]; 2.0 mg/ml) was “grey”.
For `O=S([O-])OS(=O)[O-].[Na+].[Na+]` [Sodium disulfite], the “Appearance upon exposure to light” value ([1]; 0.295 mg/ml) was “colorless”, the “Appearance at 70° C., color intensity” value ([1]; 0.295 mg/ml) was “colorless” and the “color at 70° C.” value ([5]; 0.295 mg/ml) was “yellow”. For the same compound, the “color upon exposure to light” value ([5]; 0.295 mg/ml) was “yellow”, the “color at 70° C.” value ([4]; 0.295 mg/ml) was “colorless” and the “color upon exposure to light” value ([4]; 0.295 mg/ml) was “colorless”.
For `OCC(O)CS` (stereo not drawn) [α-monothioglycerol], the “Appearance upon exposure to light” value ([1]; 1 mg/ml) was “colorless”, the “Appearance at 70° C., color intensity” value ([1]; 1 mg/ml) was “colorless” and the “color at 70° C.” value ([4]; 0.5 mg/ml) was “grey”. For the same compound, the “color upon exposure to light” value ([4]; 0.5 mg/ml) was “grey”.
For `Nc1ccc(O)cc1` [p-aminophenol], the p-aminophenol during storage [7] was “not detected”.
In the case of Glucose, the “Solution appearance, color” value [2, 9] is reported as “colorless”.
In the case of `COc1ccc2c3c1O[C@H]1[C@@H](O)C=C[C@H]4[C@@H](C2)N(C)CC[C@@]341` [codein], the “assay, non sterilized solution” value [8, 12] is reported as 0.00042 g/mL, the “assay, after sterilization” value [8, 12] is reported as 0.00042 g/mL and the “assay, non sterilized solution” value [8, 13] is reported as 0.00043 g/mL. For the same compound, the “assay, after sterilization” value [8, 13] was 0.00042 g/mL.
For `Cl.N[C@@H](CS)C(=O)O.O` [Cystein hydrochloride monohydrate], the “Solution appearance, color” value [2, 10] was “colorless”, the “Solution appearance, color” value ([2]; 0.5 mg/ml, 124° C. 7 minutes, 48 hours room temperature dark) was “colorless” and the “Dosage of paracetamol (in % of theoretical volume)” value [2, 11] was 99.2%. For the same compound, the “Dosage of paracetamol (in % of theoretical volume)” value ([2]; C.R.L. 0.5 mg/ml, 124° C. 7 minutes, 48 hours room temperature dark) was 99.6% and the “Dosage of C.R.L. (in % of theoretical volume)” value ([2]; dilute paracetamol solution, 2880 min, hydrochloride monohydrate) was 80% and 95%.
In the case of `O=C1O[C@H]([C@@H](O)CO)C([O-])=C1O.[Na+]` [Sodium ascorbate], the “Appearance upon exposure to light” value ([1]; 1 mg/ml) is reported as “yellow (+)”, the “Appearance at 70° C., color intensity” value ([1]; 1 mg/ml) is reported as “yellow (+)” and the “color at 70° C.” value ([3]; 0.2 mg/ml) is reported as “pink”. For the same compound, the “color upon exposure to light” value ([3]; 0.2 mg/ml) was “pink”, the “color at 70° C.” value ([3]; 0.4 mg/ml) was “yellow” and the “color upon exposure to light” value ([3]; 0.4 mg/ml) was “colorless”. For the same compound, the “color at 70° C.” value ([3]; 0.6 mg/ml) was “yellow”, the “color upon exposure to light” value ([3]; 0.6 mg/ml) was “pink” and the “color at 70° C.” value ([3]; 1 mg/ml) was “yellow”. For the same compound, the “color upon exposure to light” value ([3]; 1 mg/ml) was “colorless”, the “color at 70° C.” value ([5]; 1 mg/ml) was “yellow” and the “color upon exposure to light” value ([5]; 1 mg/ml) was “yellow”.
For `N[C@@H](CCC(=O)N[C@@H](CS)C(=O)NCC(=O)O)C(=O)O` [Reduced glutathion], the “Appearance upon exposure to light” value ([1]; 1 mg/ml) was “colorless”, the “Appearance at 70° C., color intensity” value ([1]; 1 mg/ml) was “colorless” and the “Appearance upon exposure to light” value ([1]; 8 mg/ml) was “colorless”. For the same compound, the “Appearance at 70° C., color intensity” value ([1]; 8 mg/ml) was “colorless”, the “color at 70° C.” value ([3]; 1 mg/ml) was “colorless” and the “color upon exposure to light” value ([3]; 1 mg/ml) was “colorless”. The “color at 70° C.” value ([4]; 2.0 mg/ml) was “colorless” and the “color upon exposure to light” value ([4]; 2.0 mg/ml) was “colorless”.
